# Source: patent publication US9205156B2, “Molecular imaging agents” (HADASIT MEDICAL RESEARCH SERVICES & DEVELOPMENT LIMITED, priority 2010, dated 2015)
# Where “and” joins values, the source holds several entries; their conditions need not be identical. Equal values may be shown once.
# Columns and labels:
# [1] = Tracer biodistribution studies in mice (γ-counter, % ID/g)
# Experimental: Compounds [^11C]-1, [^11C]-2, [^11C]-3, [^11C]-4, [^11C]-6, [^11C]-7 and Technetium-99 m methoxy isobutyl isonitrile ([^99mTc]MIBI) biodistribution studies were carried out with BALB/c Ola/Hsd mice (7-8 week). Tracers were injected in a 10% EtOH/saline solution as vehicle. Either [^11C]-1 (62±15 μCi; […]; 122±13 μL), [^11C]-2 (68±12 μCi; 2.5±0.4 MBq; 188±1.3 μL), [^11C]-3 (70±17 μCi; 2.6±0.6 MBq; 185±5 μL), [^11C]-4 (18±5 μCi; […]; 195±2.2 μL or 1.24±0.93 MBq, 229±63 μL), [^11C]-6 (1.95±0.21 MBq, 83±41 μL), [^11C]-7 (2.01±0.16 MBq, 169±73 μL) or [^99mTc]mibi (14.2±1.7 μCi; 3.6±0.4 MBq; 97.7±12.5 μL) were injected via the lateral vein. At allotted time points (1, 5, 10, 15 min), blood was drawn from the orbital sinus, mice were sacrificed by cervical dislocation and selected organs (heart, lungs, liver and kidney) were excised, weighed and measured for their radioactive content using a γ-counter (1480 Wizard 3″). Distribution of activity was calculated as the percentage of injected dose per gram of organ (% ID/g). Activity uptake ratios of various organs were calculated by dividing the corresponding calculated % ID/gs.
# Distribution of activity was calculated as the percentage of injected dose per gram of wet tissue (% ID/g). Activity uptake ratios of various organs were calculated by dividing the corresponding calculated % ID/g. Heart standardized uptake values (SUVs) were calculated by dividing the % ID in the heart of each rat by the percentage of heart weight of the total body weight of the animal.
# [2] = literature reference value; cited from earlier work
# [3] = Biodistribution of [11C]-4 in rats (γ-counter, % ID/g, heart SUV); format: in vivo, SD/Hsd rats
# Experimental: Similar to the biodistribution studies in mice, [^11C]-4 was injected into male SD/Hsd rats (293±9 g) in a 10% EtOH/saline solution (3.1±0.5 MBq; 530±134 μL) via the lateral tail vein. At the allotted time points, blood was drawn, animals were sacrificed, and selected organs were excised, weighed and measured for their radioactive content.
# [4] = Micro-PET scans in rats, time activity curves; format: in vivo, Wistar rats; settings: microPET; for myocardial radioactivity uptake: isoflurane anesthesia
# Experimental: Micro-PET scans were also carried out using healthy Wistar rats (154±47 g). Anesthesia was induced, and thereafter maintained by 3% and 1%-2.5% isoflurane in O2, respectively. During the scans, rats were maintained normothermic using a heating blanket. All CT and PET acquisitions were carried out using the Inveon™ multimodality PET-CT small animal-dedicated scanner (Siemens Medical Solutions USA Inc.). Rats were positioned in the scanner so that the heart was in the center of the field of view. Following a CT scan, PET list-mode acquisition was started at the time of injection of [^11C]-4 (14.3±5.7 Mbq/rat, n=4) or [^13N]—NH3 (81.1±20.4 Mbq/rat, n=6) in the lateral tail vein. Acquisitions continued for 60 min or 40 min post-injection, for [^11C]-4 or [^13N]—NH3, respectively.
# The list-mode emission scans were sorted into 29 (6×10, 8×30, 5×60, 10×300 sec) and 24 (12×10, 6×30, 5×300, 1×600 sec) dynamic frames, for [^11C]-4 and [^13N]—NH3 respectively. Emission sinograms were normalized and corrected for attenuation, dead time and decay. Image reconstruction was performed using Fourier rebinning and two dimensional ordered-subsets expectation maximization (2D-OSEM), with a voxel size of 0.776×0.776×0.796 mm^3.
# Image analysis and quantification of radioactivity concentration in regions of interest (ROIs) were performed using Inveon Research Workplace 3.1 (Siemens Medical Solutions USA Inc.). Delineation of ROIs was performed by manual segmentation, and the corresponding time activity curves (TACs) were calculated.
# [5] = PET/CT studies in a porcine model of LCx coronary artery occlusion (rest and adenosine stress); format: in vivo, pigs
# Experimental: Following a constriction of the left circumflex coronary artery (LCxA) via insertion and manipulation of a stent, stress and rest dynamic-PET studies were performed in three pigs. Pigs underwent dynamic PET acquisition following injections of [^11C]-4 both at rest and under pharmacological stress [(207±30 MBq in 10±4 mL) and (203±11 MBq in 16±1 mL), respectively]. Images were acquired for each animal at rest and stress on the same day, allowing a minimum of 5 half-lives (approximately 2 h for carbon-11 and 1 h for nitrogen-13) in between injections to minimize crosstalk. Pharmacological stress was induced by an IV infusion of adenosine (500 μg×min^−1×kg^−1 body weight), beginning 3 min prior to injection of the tracers, and maintained for an additional 3 min. When necessary, hypotension was prevented by concomitant IV administration of dobutamine (2 μg×min^−1×kg^−1 body weight).
# In order to prevent complete occlusion in the third pig, the angiography and stent insertion were carried out in the PET/CT room, thus minimizing the animal's movement, and the animal was given higher doses of heparin (a sum of 30,000 units throughout the experiment) based on Activated Clotting Time (ACT) test. In the third pig, the adenosine stress protocol was performed twice: once with [^13N]NH3 (700 MBq in 1 mL) injection, and 2.5 h later, the adenosine stress protocol was repeated with [^11C]-4 injection.
# To prevent blood clotting, pigs were treated with aspirin (250-300 mg) and plavix (150-300 mg) on the day before the procedure. On the day of the study, the animals were anesthetized using ketamine/xylazine (15 mg/kg/2 mg/kg) and Butorphanol 0.2 mg/kg IM as premedication. For induction, ketamin/diazepam (4 mg/kg/0.02 mg/kg) was administered intravenously. Animals were ventilated and anesthesia, maintained using isoflorane 2% inhalation (via tracheal tube). Animals were monitored continuously for ECG, body temperature, O2 saturation, blood pressure, pulse and breathing. Vascular access was prepared in the left and right ear veins for drug and tracer administration, and a catheter was placed in the left femoral artery for stent insertion and arterial blood pressure measurements.
# Following anesthesia, the pigs underwent cannulation of the left femoral artery with a 7 Fr introducer sheath and a 7 Fr hockeystick catheter (Cordis) was positioned in the left main coronary artery. Partial LCx coronary artery occlusion was induced via partial inflation of the proximal component of a JOSTENT Graftmaster (Abbott Vascular, USA) inside the LCx coronary artery, creating a funnel-shaped structure. Before insertion of the stent, the 3.5×16 mm JOSTENT was partially crimped over a 3.5 mm balloon with its distal third beyond the inflating balloon. Inflation of the balloon dilates the crimped part leaving a distal cone that is not dilated with an orifice approximately 1 mm in diameter. Thus, when deployed in an artery that is 3.5 mm in diameter, a partial, yet significant stenosis was established.
# Coronary angiography was performed with 20-30 mL of contrast media and 3.5 mm wide and >20 mm long segment of the LCx artery that was free of major branches. The stent system was brought to the assigned segment over a floppy 0.014 coronary wire (ASAHI). The balloon was inflated with a pressure of 14-16 atmospheres (10-15 seconds) and the balloon was then deflated and withdrawn. Angiography was then performed in two different projections to ascertain that the cone-shaped stent enabled preserved continuous flow through its patent distal orifice. To ensure partial stenosis rather than complete occlusion of the artery during the PET imaging, a repeated angiography was taken at the end of imaging.
# Animals were placed in a supine position with the heart in the center of the field of view of the PET/CT scanner. Imaging was performed on a Discovery ST PET/CT tomograph (GE Healthcare, Milwaukee, Wis.), with intrinsic spatial resolution: in-plane 6.2 mm, axial 5.0 mm. […]
# [6] = mice, time point not stated (within 15 min period)
# [7] = BALB/c Ola/Hsd, mouse, in vivo, 5 min
# [8] = BALB/c Ola/Hsd, mouse, in vivo, 10 min
# [9] = BALB/c Ola/Hsd, mouse, in vivo, 15 min
molecule,measurement,setting,value
"C[N+](C)([11CH3])c1ccccc1 [[^11C]-2, [^11C]trimethyl-phenyl-ammonium iodide]",radioactivity uptake in the heart,"[1]; mice, 1 min post injection",29.5 % ID/g
same,heart/blood activity uptake ratio,"[1]; mice, 5 min post injection",15.5 fold
same,heart/liver activity uptake ratio,"[1]; mice, 5 min post injection",1.9
same,heart/lungs activity uptake ratio,"[1]; mice, 5 min post injection",2.6
same,radioactivity uptake in the heart,"[1]; mice, 5 min post injection",26.8 % ID/g
same,heart/blood activity uptake ratio,"[1]; mice, 10 min post injection",13.3 fold and ~13 fold
same,radioactivity uptake in the heart,"[1]; mice, 10 min post injection",18.5 % ID/g and ~20 % ID/g
same,radioactivity uptake in the heart,"[1]; mice, 15 min post injection",13.9 % ID/g
same,heart/blood activity uptake ratio,[1]; [6],16 fold
same,log P,[2],−2.74
"C[N+]([11CH3])(c1ccccc1)c1ccccc1 [[^11C]-4, [^11C]dimethyl-diphenyl-ammonium iodide]",radioactivity uptake in the heart,"[1]; BALB/c Ola/Hsd, mouse, in vivo, 1 min",46.6 % ID/g
same,heart/blood activity uptake ratio,[1]; [7],44 fold
same,radioactivity uptake in the heart,[1]; [7],50.4 % ID/g
same,heart/blood activity uptake ratio,[1]; [8],61 fold
same,radioactivity uptake in the heart,[1]; [8],62.5 % ID/g
same,Heart SUV,[1]; [9],9.7±0.5
same,radioactivity uptake in the heart,[1]; [9],44.5 % ID/g
same,heart uptake compared to [99mTc]-MIBI,"[1]; mouse, in vivo",twice as high
same,stable heart SUVs,[3],about 15
same,heart/blood activity ratios,[3]; 5-15 min after injection,67.5-88.5
same,heart/kidneys uptake ratio,[3]; 10 min after injection,3.5
same,heart/liver uptake ratio,[3]; 10 min after injection,3.2
same,heart/lungs uptake ratio,[3]; 10 min after injection,2.4
same,Heart SUV,[3]; 15 min post injection,15.6±0.4
same,heart/blood activity ratio,[3]; 15 min post injection,about 90
same,"radioactivity in the heart compared to the lungs, kidneys and the liver",[3]; 15 min post injection,approximately 5 fold
same,radioactivity uptake in the heart,[3]; throughout the first 15 min,approximately 5 % ID/g
same,"kidney radioactivity uptake, initial peak value",[4],6 % ID/mL
same,kidney radioactivity uptake,[4]; 20 min after injection,~1 % ID/mL
same,myocardial radioactivity uptake,[4],~3 % ID/mL
same,"myocardial perfusion image finding, rest and stress","[5]; pig 1, complete stent occlusion","very severe, non-filling defect"
same,"myocardial perfusion image finding, rest and stress","[5]; pig 2, acute myocardial infarction","severe, fixed, inferior wall defect, with partial inferolateral wall reversibility"
same,myocardial perfusion image finding at adenosine stress,"[5]; pig 3, partial LCx stenosis",severe inferolateral defect
same,myocardial perfusion image finding at rest,"[5]; pig 3, partial LCx stenosis",filling in of that defect
same,time to minimum of blood pool activity,"[5]; pig 3, time-activity curves",5 min
same,time to plateau of cardiac accumulation,"[5]; pig 3, time-activity curves",approximately 10 min
"Cc1cccc([N+](C)(C)[11CH3])c1 [[^11C]-6, [^11C]Methyl-dimethyl-m-tolyl-ammonium iodide]",heart/blood activity uptake ratio,"[1]; mice, 10 min post injection",~13 fold
same,radioactivity uptake in the heart,"[1]; mice, 10 min post injection",~20 % ID/g
"C[N+](C)([11CH3])c1cccc2ccccc12.O=S(=O)([O-])C(F)(F)F [[^11C]-7, [^11C]Methyl-dimethyl-1-naphtylammonium trifluoro-methane-sulfonate]",radioactivity uptake in the heart,"[1]; mice, 10 min post injection",~33 % ID/g
same,heart/blood activity uptake ratio,[1]; [6],≤ 20 fold
"[13NH3] [[^13N]NH3, [^13N]ammonia, reference compound]","kidney radioactivity uptake, initial peak value",[4],3 % ID/mL
same,myocardial radioactivity uptake,[4],≤ 1.7 % ID/mL
same,myocardial perfusion image finding at adenosine stress,"[5]; pig 3, partial LCx stenosis",severe inferolateral defect
"[99Tc].[C-]#[N+]CC(C)(C)OC.[C-]#[N+]CC(C)(C)OC.[C-]#[N+]CC(C)(C)OC.[C-]#[N+]CC(C)(C)OC.[C-]#[N+]CC(C)(C)OC.[C-]#[N+]CC(C)(C)OC [[^99mTc]MIBI, Technetium-99 m methoxy isobutyl isonitrile, reference compound]",radioactivity uptake in the heart,"[1]; mice, 1 min post injection",24 % ID/g
same,radioactivity uptake in the heart,"[1]; mice, 5 min post injection",20.5 % ID/g
same,radioactivity uptake in the heart,"[1]; mice, 10 min post injection",21.4 % ID/g
same,heart/blood activity uptake ratio,"[1]; mice, 15 min post injection",45.1 fold
same,radioactivity uptake in the heart,"[1]; mice, 15 min post injection",13.8 % ID/g
[^11C]tetramethyl-ammonium iodide [[^11C]-1],"cardiac uptake, folds lower than in the kidneys",[1]; mice,9 folds
same,"cardiac uptake, folds lower than in the liver",[1]; mice,3 folds
same,activity accumulation in the heart over all observed time points,"[1]; mice, 1-15 min post injection",0.7-1.1 % ID/g
same,heart/blood activity uptake ratio,[1]; [6],less than 6 fold
same,log P,[2],−3.92
